According to ChEMBL document CHEMBL4342418, “1,2,3-Triazole-containing hybrids as potential anticancer agents: Current developments, action mechanisms and structure-activity relationships” (Eur J Med Chem, 2019):

Tests used:
MGC-803 = assay: Antiproliferative activity against human MGC803 cells by MTT assay; format: functional, cell-based
MKN-28 = assay: Antiproliferative activity against human MKN28 cells by MTT assay; format: functional, cell-based
MKN-45 = assay: Antiproliferative activity against human MKN45 cells by MTT assay; format: functional, cell-based
MDA-MB-231 [1] = assay: Antiproliferative activity against human MDA-MB-231 cells assessed as reduction in cell viability after 24 hrs by MTT assay; format: functional, cell-based; settings: MDA-MB-231, 24 h
[2] = Antiproliferative activity against human HCG27 cells by MTT assay; format: functional, cell-based
MCF7 [3] = assay: Antiproliferative activity against human MCF7 cells assessed as reduction in cell viability after 72 hrs by MTT assay; format: functional, cell-based; settings: MCF7, 72 h
HeLa [4] = assay: Antiproliferative activity against human HeLa cells assessed as reduction in cell viability after 24 hrs by MTT assay; format: functional, cell-based
hTERT-BJ = assay: Cytotoxicity activity against human hTERT-BJ cells by MTT assay; format: cell-based
A549 [5] = assay: Antiproliferative activity against human A549 cells assessed as reduction in cell viability after 48 hrs by MTT assay; format: functional, cell-based; settings: A549, 48 h
HT-29 [6] = assay: Antiproliferative activity against human HT-29 cells assessed as reduction in cell viability after 48 hrs by MTT assay; format: functional, cell-based; settings: HT-29, 48 h
HBL-100 = assay: Antiproliferative activity against human HBL100 cells by MTT assay; format: functional, cell-based
HepG2 [7] = assay: Antiproliferative activity against human HepG2 cells assessed as reduction in cell viability after 24 hrs by MTT assay; format: functional, cell-based; settings: HepG2, 24 h
PC-3 [8] = assay: Antiproliferative activity against human PC3 cells assessed as reduction in cell viability after 24 hrs by MTT assay; format: functional, cell-based; settings: PC-3, 24 h
ECa-109 cell line = assay: Antiproliferative activity against human EC109 cells by MTT assay; format: functional, cell-based
MDA-MB-231 [9] = assay: Antiproliferative activity against human MDA-MB-231 cells assessed as reduction in cell viability after 72 hrs by MTT assay; format: functional, cell-based; settings: MDA-MB-231, 72 h, read-out: IC50
PC-3 [10] = assay: cells; format: functional, cell-based; settings: Homo sapiens, PC-3, 48 h
Description: Antiproliferative activity against human PC3 cells assessed as reduction in cell viability after 48 hrs by MTT assay

HeLa [11] = assay: Antiproliferative activity against human HeLa cells by MTT assay; format: functional, cell-based
SW1573 = assay: Antiproliferative activity against human SW1573 cells by MTT assay; format: functional, cell-based
MCF7 [12] = assay: cells; format: functional, cell-based; settings: Homo sapiens
Description: Antiproliferative activity against human MCF7 cells by MTT assay

WiDr = assay: Antiproliferative activity against human WiDr cells by MTT assay; format: functional, cell-based
A549 [13] = assay: cells; format: functional, cell-based; settings: Homo sapiens
Description: Antiproliferative activity against human A549 cells by MTT assay

A549 [14] = assay: Antitumour activity against human A549 cells xenografted in Kunming mice assessed as tumour growth inhibition at 20 mg/kg, iv bid administered and measured after week relative to control; format: functional; settings: Mus musculus, read-out: TGI
U-87 MG = assay: Antiproliferative activity against human U87MG cells assessed as reduction in cell viability after 48 hrs by MTT assay; format: functional, cell-based, U-87MG ATCC
T47D = assay: Antiproliferative activity against human T47D cells by MTT assay; format: functional, cell-based
HepG2 [15] = assay: Antiproliferative activity against human HepG2 cells by MTT assay; format: functional, cell-based
MDA-MB-468 = assay: Antiproliferative activity against human MDA-MB-468 cells assessed as reduction in cell viability after 72 hrs by MTT assay; format: functional, cell-based; settings: MDA-MB-468, 72 h
SK-N-SH = assay: Antiproliferative activity against human SK-N-SH cells by MTT assay; format: functional, cell-based
[16] = Antiproliferative activity against BAEC cells assessed as reduction in cell viability after 3 days by coulter counting method; format: functional, cell-based; settings: Bos taurus, 72 h
L1210 = assay: Antiproliferative activity against mouse L1210 cells assessed as reduction in cell viability after 3 days by coulter counting method; format: functional, cell-based; settings: L1210, 72 h
HT-29 [17] = assay: Potency index, ratio of Sorafenib IC50 to test compound IC50 for antiproliferative activity against human HT-29 cells; format: functional
HT-29 [18] = assay: Antiproliferative activity against human HT-29 cells assessed as reduction in cell viability after 72 hrs by MTT assay; format: functional, cell-based; settings: HT-29, 72 h
MCF7 [19] = assay: Potency index, ratio of Sorafenib IC50 to test compound IC50 for antiproliferative activity against human MCF7 cells; format: functional
HGC-27 = assay: Antiproliferative activity against human HGC27 cells assessed as reduction in cell viability after 48 hrs by MTT assay; format: functional, cell-based; settings: HGC-27, 48 h
MCF7 [20] = assay: Antiproliferative activity against human MCF7 cells assessed as reduction in cell viability after 24 hrs by MTT assay; format: functional, cell-based; settings: MCF7, 24 h
HeLa [21] = assay: Antiproliferative activity against human HeLa cells assessed as reduction in cell viability after 48 hrs by MTT assay; format: functional, cell-based
DU-145 [22] = assay: Antiproliferative activity against human DU145 cells assessed as reduction in cell viability after 48 hrs by MTT assay; format: functional, cell-based; settings: DU-145, 48 h
SK-OV-3 [23] = assay: Antiproliferative activity against human SKOV3 cells assessed as reduction in cell viability after 48 hrs by MTT assay; format: functional, cell-based; settings: SK-OV-3, 48 h
HepG2 [24] = assay: Antiproliferative activity against human HepG2 cells by SRB assay; format: functional, cell-based
MCF7 [25] = assay: Antiproliferative activity against human MCF7 cells by SRB assay; format: functional, cell-based
HeLa [26] = assay: Antiproliferative activity against human HeLa cells by SRB assay; format: functional, cell-based
MCF7-DOX = assay: Antiproliferative activity against human MCF7/Dox cells by SRB assay; format: functional, cell-based
DU-145 [27] = assay: Antiproliferative activity against human DU145 cells by SRB assay; format: functional, cell-based
SK-OV-3 [28] = assay: Antiproliferative activity against human SKOV3 cells by SRB assay; format: functional, cell-based
A549 [29] = assay: Antiproliferative activity against human A549 cells by SRB assay; format: functional, cell-based

**Q.** With `COc1ccc(-n2cc(CN3c4ccccc4Sc4ccccc43)nn2)c([N+](=O)[O-])c1` as the compound, how does the IC50 (MGC-803) read?
**A.** 1.2 to 3.5 µM

**Q.** What about the IC50 (MKN-28) of the same compound?
**A.** 1.2 to 3.5 µM

**Q.** And the IC50 (MKN-45)?
**A.** 1.2 to 3.5 µM

**Q.** Which IC50 (MDA-MB-231 [1]) does the source give for `O=c1[nH]cc(F)c(=O)[nH]1` [FLUOROURACIL] here?
**A.** 1.6 to 1.9 µM

**Q.** And the IC50 [2]?
**A.** 6.5 to 14.6 µM

**Q.** What about the IC50 (MGC-803) of the same compound?
**A.** 6.5 to 14.6 µM

**Q.** What about the IC50 (MCF7 [3]) of the same compound?
**A.** 7.5 to 12.7 µM

**Q.** What about the IC50 (HeLa [4]) of the same compound?
**A.** 1.6 to 1.9 µM

**Q.** And the IC50 (hTERT-BJ)?
**A.** 5.5 µM

**Q.** What about the IC50 (A549 [5]) of the same compound?
**A.** 2.42 to 3.61 µM

**Q.** What about the IC50 (HT-29 [6]) of the same compound?
**A.** 2.42 to 3.61 µM

**Q.** What about the IC50 (MKN-28) of the same compound?
**A.** 6.9 to 19.4 µM

**Q.** What about the IC50 (HBL-100) of the same compound?
**A.** 4.3 to 49 µM

**Q.** What about the IC50 (HepG2 [7]) of the same compound?
**A.** 1.6 to 1.9 µM

**Q.** What about the IC50 (MKN-45) of the same compound?
**A.** 6.9 to 19.4 µM

**Q.** What about the IC50 (PC-3 [8]) of the same compound?
**A.** 1.6 to 1.9 µM

**Q.** And the IC50 (ECa-109 cell line)?
**A.** 6.5 to 14.6 µM

**Q.** And the IC50 (MDA-MB-231 [9])?
**A.** 7.5 to 12.7 µM

**Q.** What about the IC50 (PC-3 [10]) of the same compound?
**A.** 2.42 to 3.61 µM

**Q.** What about the IC50 (HeLa [11]) of the same compound?
**A.** 4.3 to 49 µM

**Q.** And the IC50 (SW1573)?
**A.** 4.3 to 49 µM

**Q.** And the IC50 (MCF7 [12])?
**A.** 30 mg/L

**Q.** What about the IC50 (WiDr) of the same compound?
**A.** 4.3 to 49 µM

**Q.** And the IC50 (A549 [13])?
**A.** 4.3 to 49 µM

**Q.** And the inhibition in vivo at 20 mg/kg (A549 [14])?
**A.** 64.7%

**Q.** And the IC50 (U-87 MG)?
**A.** 2.42 to 3.61 µM

**Q.** And the IC50 (T47D)?
**A.** 4.3 to 49 µM

**Q.** And the IC50 (HepG2 [15])?
**A.** 7.22 to 10.3 µM

**Q.** What about the IC50 (MDA-MB-468) of the same compound?
**A.** 7.5 to 12.7 µM

**Q.** And the IC50 (SK-N-SH)?
**A.** 7.22 to 10.3 µM

**Q.** Which IC50 [16] does the source give for `CS(=O)(=O)c1ccc(-c2cn(-c3ccc(Cl)c(-c4ccccn4)c3)nn2)c(Cl)c1` here?
**A.** 40 to 82 µM

**Q.** What about the IC50 (L1210) of the same compound?
**A.** 40 to 82 µM

**Q.** For `C=CCC1CC(Cc2cn([C@@H](Cc3ccccc3)c3nc(C(=O)OC)co3)nn2)CC(O[Si](C)(C)C(C)(C)C)C1` (some centres not stated), which IC50 (hTERT-BJ) is on record?
**A.** 53 µM

**Q.** What about the IC50 (HBL-100) of the same compound?
**A.** 3.1 to 6.6 µM

**Q.** What about the IC50 (HeLa [11]) of the same compound?
**A.** 3.1 to 6.6 µM

**Q.** And the IC50 (SW1573)?
**A.** 3.1 to 6.6 µM

**Q.** What about the IC50 (WiDr) of the same compound?
**A.** 3.1 to 6.6 µM

**Q.** And the IC50 (A549 [13])?
**A.** 3.1 to 6.6 µM

**Q.** And the IC50 (T47D)?
**A.** 3.1 to 6.6 µM

**Q.** Which IC50 (MCF7 [3]) does the source give for `CNC(=O)c1cc(Oc2ccc(-n3cc(-c4cccs4)nn3)cc2)ccn1` here?
**A.** 0.2 to 0.84 µM

**Q.** What about the “Ratio IC50” value (HT-29 [17]) of the same compound?
**A.** 6.2 - 131.2

**Q.** And the IC50 (HT-29 [18])?
**A.** 0.2 to 0.84 µM

**Q.** What about the “Ratio IC50” value (MCF7 [19]) of the same compound?
**A.** 6.2 - 131.2

**Q.** For `COc1ccc2c(c1)[nH]c1c(C)nccc12` [HARMINE], which IC50 (MCF7 [3]) is on record?
**A.** 3.52 to 24.4 µM

**Q.** And the IC50 (HT-29 [6])?
**A.** 3.52 to 24.4 µM

**Q.** And the IC50 (PC-3 [10])?
**A.** 3.52 to 24.4 µM

**Q.** And the IC50 (HGC-27)?
**A.** 3.52 to 24.4 µM

**Q.** What does the source list for `COc1cc(-c2nc(Cn3cc(CN4C(=O)c5ccc(C)cc5C4=O)nn3)cc3c2[nH]c2ccccc23)cc(OC)c1OC`?
**A.** IC50 (MCF7 [3]): 3.67 to 26.5 µM; IC50 (HT-29 [6]): 3.67 to 26.5 µM; IC50 (PC-3 [10]): 3.67 to 26.5 µM; IC50 (HGC-27): 3.67 to 26.5 µM

**Q.** What does the source list for `Cc1ccc(Cn2cc(CSc3nc(Nc4ccccc4)c4ccccc4n3)nn2)cc1`?
**A.** IC50 [2]: 0.57 to 7.13 µM; IC50 (MGC-803): 0.57 to 7.13 µM; IC50 (ECa-109 cell line): 0.57 to 7.13 µM; IC50 (MCF7 [12]): 0.57 to 7.13 µM

**Q.** With `Cc1ncc([N+](=O)[O-])n1Cc1cn(CCCCCN2C(=O)C(=O)c3cc(Cl)ccc32)nn1` as the compound, how does the IC50 (MDA-MB-231 [1]) read?
**A.** 16.1 µM

**Q.** What about the IC50 (MCF7 [20]) of the same compound?
**A.** 20.8 µM

**Q.** Which IC50 (HeLa [21]) does the source give for `O=C(NCc1cn(-c2ccc(F)cc2)nn1)C(=O)c1c[nH]c2ccccc12` here?
**A.** > 100 µM

**Q.** What about the IC50 (DU-145 [22]) of the same compound?
**A.** 8.69 µM

**Q.** What about the IC50 (SK-OV-3 [23]) of the same compound?
**A.** > 100 µM

**Q.** With `Cc1ccc2c(c1)/C(=N/O)C(=O)N2CCOCCn1cc(COc2ccc3c(C)cc(=O)oc3c2)nn1` as the compound, how does the IC50 (HepG2 [24]) read?
**A.** 15.5 to 31.5 µM

**Q.** What about the IC50 (MCF7 [25]) of the same compound?
**A.** 15.5 to 31.5 µM

**Q.** And the IC50 (HeLa [26])?
**A.** 15.5 to 31.5 µM

**Q.** And the IC50 (MCF7-DOX)?
**A.** 15.5 to 31.5 µM

**Q.** What about the IC50 (DU-145 [27]) of the same compound?
**A.** 15.5 to 31.5 µM

**Q.** What about the IC50 (SK-OV-3 [28]) of the same compound?
**A.** 15.5 to 31.5 µM

**Q.** And the IC50 (A549 [29])?
**A.** 15.5 to 31.5 µM
